Measurements reported in patent US20100093776A1, “Organic Compounds and Their Uses” (Novartis AG, priority 2006, published 2010).

What was measured:
neointima formation = settings: rats; cited from earlier work
CDK7/cyclinH/MAT1 = target: T1, CDK7/cyclinH/MAT1 (Homo sapiens, UniProt P50613); assay: CDK7/cyclinH/Mat1 IMAP fluorescence polarization kinase assay; format: biochemical; settings: 8.09 μM ATP, two hours at room temperature
T1 construct: purchased Millipore
Protocol: (§1) Kinase assays were performed on recombinant purified enzymes using the non-radioactive IMAP fluorescence polarization assay format.
(§2) Compound stocks were prepared and diluted in DMSO and were added to kinase reactions at a 1/100 dilution for a final concentration of 1% DMSO. The components were added together to final concentrations listed in the tables below and incubated for two hours at room temperature.
(§3) The reactions were stopped by addition of stop solution.
(§4) CDK9/CDK1/CDK7: final stop concentration is 1× Developer buffer (85% A/15% B), IMAP beads 1/400
(§5) The samples were allowed to incubate for one more hour at room temperature and then the fluorescence polarization was measured. The plate normalized millipolarization (mP) values were plotted against the log of compound concentration for each compound and IC50 values were calculated using the spotfire IC50 calculator and confirmed by visual analysis.

[1] = test system: RNA polymerase II CTD serine2 phosphorylation in Hep3B cells; assay: H5 (Ser2) Ab High Content Screen: RNA polymerase II CTD serine2 phosphorylation Assay; format: cell-based; settings: Homo sapiens, compounds for 2 hours, H5 antibody nuclear staining
Protocol: H5 (also referred as Ser2) Ab High Content Screen: RNA polymerase II CTD serine2 phosphorylation Assay
1. Cells are plated into 384 well plates: 30 μl of Hep3B cells (4,000 cells/30 μl) in DMEM with 3% FBS are plated into wells of a tissue culture treated clear bottomed 384 well plate. Cells are allowed to adhere during an overnight incubation.
2. Cells are treated with compounds for two hours: 10 μl of DMEM with 3% FBS is added to each well with a final concentration of DMSO equal to 1%. Cells are incubated with compounds for 2 hours.
3. Cells are fixed and permeabilized. Cells are washed with 30 mM HEPES pH=7.3 then fixed in 4% paraformaldehyde in 30 mM HEPES pH=7.3 for one hour at room temperature. The fix is removed by washing the cells with Tris buffered saline (TBS) and the cells are permeabilized by incubation in TBS with 0.5% triton X-100 for 30 minutes at room temperature. Triton is removed by washing the cells with TBS.
4. Cells are stained with H5 monoclonal antibody and nuclei are stained with Hoechst dye 33342: Block cells by incubating in TBS with 1% Bovine serum albumin (BSA) for one hour at room temperature. Incubate primary H5 Ab (1/250) overnight at 4 degrees in PBS with 1% BSA and 0.1% Tween-20. The next day wash cells with TBS. Add secondary antibody, anti-IgM labeled with cy5 (1/450), and Hoecsht dye 33342 (10 μg/ml) in TBS with 1% BSA and incubate one hour at room temperature. Wash cells with PBS.
5. Measure staining using the In-cell Analyzer system from GE Healthcare. Nuclei were located using the Hoecsht 33342 dye signal and H5 Antibody staining was quantified by measuring cy5 label. Nuclear intensity of H5 staining was plotted against the log of compound concentration for each compound and IC-50 values were calculated using the spotfire IC-50 calculator and confirmed by visual analysis.

CDK1/cyclinB = target: T2, CDK1/cyclinB (Homo sapiens, UniProt P06493); assay: CDK1/cyclinB IMAP fluorescence polarization kinase assay; format: biochemical; settings: 52 μM ATP, two hours at room temperature
T2 construct: purchased Millipore
Protocol: as §1, §2, §3, §4, §5

CDK5 = CDK5 (Homo sapiens, UniProt Q00535); assay: CDK5 kinase assay (IMAP fluorescence polarization); format: biochemical
Protocol: as §1, §2, §5

CDK4 = CDK4 (Homo sapiens, UniProt P11802); assay: CDK4 kinase assay (IMAP fluorescence polarization); format: biochemical
Protocol: as §1, §2, §5

CDK9/cyclinT1 = target: T3, CDK9/cyclinT1 (Homo sapiens, UniProt P50750); assay: CDK9/cyclinT1 IMAP fluorescence polarization kinase assay; format: biochemical; settings: 6 μM ATP, two hours at room temperature
T3 construct: purchased Millipore
Protocol: as §1, §2, §3, §4, §5

CDK2/cyclinA = target: T4, CDK2/cyclinA (Homo sapiens, UniProt P24941); assay: CDK2/cyclinA IMAP fluorescence polarization kinase assay; format: biochemical; settings: 4.68 μM ATP, two hours at room temperature
T4 construct: purchased Millipore
Protocol: as §1, §2, §3
CDK2: final stop concentration is 1× Developer buffer (100% A), IMAP beads 1/400
as §5

Chain of CDK4 (P11802 whole entry, species assumed): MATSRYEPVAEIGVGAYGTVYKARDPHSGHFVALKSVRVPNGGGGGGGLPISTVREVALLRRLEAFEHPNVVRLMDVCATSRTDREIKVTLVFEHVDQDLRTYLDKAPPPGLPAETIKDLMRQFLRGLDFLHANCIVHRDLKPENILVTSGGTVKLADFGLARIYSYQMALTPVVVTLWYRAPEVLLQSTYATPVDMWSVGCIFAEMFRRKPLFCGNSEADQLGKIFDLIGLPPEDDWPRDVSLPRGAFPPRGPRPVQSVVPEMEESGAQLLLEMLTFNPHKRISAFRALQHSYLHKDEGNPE
Chain of CDK4 (P24385 whole entry partner, species assumed): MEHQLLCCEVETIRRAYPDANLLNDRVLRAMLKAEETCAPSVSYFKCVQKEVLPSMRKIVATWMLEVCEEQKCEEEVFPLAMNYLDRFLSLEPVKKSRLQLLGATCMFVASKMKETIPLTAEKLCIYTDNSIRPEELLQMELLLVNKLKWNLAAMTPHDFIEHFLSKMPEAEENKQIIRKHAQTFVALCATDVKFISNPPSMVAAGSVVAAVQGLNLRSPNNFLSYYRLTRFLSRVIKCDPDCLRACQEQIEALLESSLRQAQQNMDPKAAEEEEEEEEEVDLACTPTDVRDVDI
T2 sequence (P06493 whole entry): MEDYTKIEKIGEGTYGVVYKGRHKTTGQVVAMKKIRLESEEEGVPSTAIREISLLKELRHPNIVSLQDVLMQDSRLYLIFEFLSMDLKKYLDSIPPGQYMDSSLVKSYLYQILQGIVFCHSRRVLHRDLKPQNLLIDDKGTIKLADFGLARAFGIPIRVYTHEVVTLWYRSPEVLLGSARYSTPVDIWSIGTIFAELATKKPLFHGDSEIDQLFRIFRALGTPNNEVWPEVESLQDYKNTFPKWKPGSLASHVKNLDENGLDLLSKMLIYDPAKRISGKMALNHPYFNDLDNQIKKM
T2 sequence (P14635 whole entry partner): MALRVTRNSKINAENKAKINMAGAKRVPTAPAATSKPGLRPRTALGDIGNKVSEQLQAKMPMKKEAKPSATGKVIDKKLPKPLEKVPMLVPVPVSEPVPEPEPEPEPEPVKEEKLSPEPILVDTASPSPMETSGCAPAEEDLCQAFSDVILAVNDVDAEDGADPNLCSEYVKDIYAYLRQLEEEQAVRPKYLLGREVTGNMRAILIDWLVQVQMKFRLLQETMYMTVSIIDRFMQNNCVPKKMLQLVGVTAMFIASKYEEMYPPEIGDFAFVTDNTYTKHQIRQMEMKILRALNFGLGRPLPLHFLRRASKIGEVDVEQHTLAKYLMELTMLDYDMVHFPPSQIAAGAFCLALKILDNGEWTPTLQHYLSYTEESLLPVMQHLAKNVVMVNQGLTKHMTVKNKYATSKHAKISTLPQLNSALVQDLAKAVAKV
T1 sequence (P50613 whole entry): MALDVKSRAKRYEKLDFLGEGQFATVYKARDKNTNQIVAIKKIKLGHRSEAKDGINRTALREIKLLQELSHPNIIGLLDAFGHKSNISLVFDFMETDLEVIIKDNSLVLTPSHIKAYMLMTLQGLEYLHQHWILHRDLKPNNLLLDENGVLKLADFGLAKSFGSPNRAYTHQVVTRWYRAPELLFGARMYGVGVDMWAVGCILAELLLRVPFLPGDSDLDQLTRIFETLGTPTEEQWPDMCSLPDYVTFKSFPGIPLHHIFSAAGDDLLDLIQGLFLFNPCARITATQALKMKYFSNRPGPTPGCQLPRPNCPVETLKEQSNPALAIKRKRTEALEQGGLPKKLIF
T1 sequence (P51946 whole entry partner): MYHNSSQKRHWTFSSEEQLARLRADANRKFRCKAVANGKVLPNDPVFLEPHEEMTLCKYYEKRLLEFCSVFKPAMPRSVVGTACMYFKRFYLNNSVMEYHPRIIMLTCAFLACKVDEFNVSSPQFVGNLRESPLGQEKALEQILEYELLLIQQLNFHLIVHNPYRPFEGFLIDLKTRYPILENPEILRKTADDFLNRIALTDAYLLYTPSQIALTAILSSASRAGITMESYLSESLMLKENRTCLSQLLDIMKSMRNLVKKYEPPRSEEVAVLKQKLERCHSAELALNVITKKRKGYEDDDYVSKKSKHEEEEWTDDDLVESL
T1 sequence (P51948 whole entry partner): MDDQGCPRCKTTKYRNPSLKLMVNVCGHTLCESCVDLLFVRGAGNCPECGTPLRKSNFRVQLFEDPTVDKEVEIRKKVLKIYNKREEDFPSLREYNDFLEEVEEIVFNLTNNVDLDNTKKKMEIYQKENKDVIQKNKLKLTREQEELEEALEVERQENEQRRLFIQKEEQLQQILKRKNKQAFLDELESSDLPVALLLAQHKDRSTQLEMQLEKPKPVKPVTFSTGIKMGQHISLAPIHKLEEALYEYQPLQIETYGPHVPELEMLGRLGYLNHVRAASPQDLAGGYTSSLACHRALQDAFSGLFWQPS
Chain of CDK5 (Q00535 whole entry, species assumed): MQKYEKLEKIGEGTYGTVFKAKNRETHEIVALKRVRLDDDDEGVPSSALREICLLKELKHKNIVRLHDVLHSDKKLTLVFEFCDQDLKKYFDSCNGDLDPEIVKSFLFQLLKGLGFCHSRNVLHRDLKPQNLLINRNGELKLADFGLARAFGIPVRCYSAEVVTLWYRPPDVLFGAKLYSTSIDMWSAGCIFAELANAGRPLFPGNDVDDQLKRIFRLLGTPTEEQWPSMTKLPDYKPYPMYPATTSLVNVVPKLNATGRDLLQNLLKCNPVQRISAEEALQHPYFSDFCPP
Chain of CDK5 (Q15078 whole entry partner, species assumed): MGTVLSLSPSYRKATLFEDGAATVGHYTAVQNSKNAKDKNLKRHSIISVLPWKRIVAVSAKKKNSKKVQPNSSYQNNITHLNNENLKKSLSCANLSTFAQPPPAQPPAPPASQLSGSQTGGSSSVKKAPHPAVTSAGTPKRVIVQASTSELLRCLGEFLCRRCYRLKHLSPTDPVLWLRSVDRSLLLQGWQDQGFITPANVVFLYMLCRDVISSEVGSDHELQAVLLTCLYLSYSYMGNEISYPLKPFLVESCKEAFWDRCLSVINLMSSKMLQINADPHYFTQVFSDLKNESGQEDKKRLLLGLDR
T3 sequence (P50750 whole entry): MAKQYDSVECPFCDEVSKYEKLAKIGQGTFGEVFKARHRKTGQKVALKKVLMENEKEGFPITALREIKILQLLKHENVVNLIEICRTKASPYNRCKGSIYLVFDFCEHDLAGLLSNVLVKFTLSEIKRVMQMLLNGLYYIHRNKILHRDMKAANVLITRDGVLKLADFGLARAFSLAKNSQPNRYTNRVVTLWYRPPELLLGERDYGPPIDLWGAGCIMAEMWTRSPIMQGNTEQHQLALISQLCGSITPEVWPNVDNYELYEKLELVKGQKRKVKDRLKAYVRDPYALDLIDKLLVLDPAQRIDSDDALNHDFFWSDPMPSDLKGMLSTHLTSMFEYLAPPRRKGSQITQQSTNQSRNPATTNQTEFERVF
T3 sequence (O60563 whole entry partner): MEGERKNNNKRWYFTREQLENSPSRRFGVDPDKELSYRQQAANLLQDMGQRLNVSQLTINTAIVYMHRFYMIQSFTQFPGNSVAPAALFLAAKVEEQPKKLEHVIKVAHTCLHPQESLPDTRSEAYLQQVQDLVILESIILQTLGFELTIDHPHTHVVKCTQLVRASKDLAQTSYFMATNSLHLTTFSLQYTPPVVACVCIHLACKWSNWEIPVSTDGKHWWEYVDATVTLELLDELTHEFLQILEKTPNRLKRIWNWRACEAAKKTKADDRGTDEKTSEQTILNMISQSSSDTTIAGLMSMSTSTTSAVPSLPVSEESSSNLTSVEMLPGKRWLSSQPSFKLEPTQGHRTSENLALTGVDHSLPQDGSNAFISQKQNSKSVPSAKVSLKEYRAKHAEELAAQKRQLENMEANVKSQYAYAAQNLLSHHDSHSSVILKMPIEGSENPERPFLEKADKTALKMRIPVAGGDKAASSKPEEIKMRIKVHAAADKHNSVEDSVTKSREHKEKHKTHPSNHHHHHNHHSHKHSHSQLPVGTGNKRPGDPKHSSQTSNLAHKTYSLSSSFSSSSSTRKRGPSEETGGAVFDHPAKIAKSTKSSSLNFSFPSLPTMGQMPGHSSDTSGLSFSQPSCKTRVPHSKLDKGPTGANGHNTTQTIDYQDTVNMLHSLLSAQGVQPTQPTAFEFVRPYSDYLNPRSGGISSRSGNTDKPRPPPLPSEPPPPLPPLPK

For COc1ccc(CNc2nc(N(CCO)CCO)nc3c2ncn3C(C)C)cc1 [CVT-313], the “inhibition of neointima formation” value (neointima formation) is listed as “greater than 80%”.
In the case of Clc1cccc(Nc2nccc(-c3cccc4[nH]ccc34)n2)c1 [Compound 1, (3-Chloro-phenyl)-[4-(1H-indol-4-yl)-pyrimidin-2-yl]-amine], the IC50 (CDK7/cyclinH/MAT1) is reported as greater than 50 µM, the IC50 [1] is reported as less than 5 µM and the IC50 (CDK1/cyclinB) is reported as less than 5 µM. The IC50 (CDK5) was less than 5 µM, the IC50 (CDK4) was 5 to 15 µM and the IC50 (CDK9/cyclinT1) was less than 5 µM.
CS(=O)(=O)c1cccc(Nc2nccc(-c3cccc4[nH]ccc34)n2)c1 [Compound 2, [4-(1H-Indol-4-yl)-pyrimidin-2-yl]-(3-methanesulfonyl-phenyl)-amine] showed an IC50 (CDK7/cyclinH/MAT1) of less than 5 µM, an IC50 [1] of less than 5 µM and an IC50 (CDK2/cyclinA) of less than 5 µM. It also gave an IC50 (CDK1/cyclinB) of less than 5 µM, an IC50 (CDK5) of less than 5 µM and an IC50 (CDK4) of less than 5 µM. For the same compound, the IC50 (CDK9/cyclinT1) was less than 5 µM.
CCNC(=O)Cn1ccc2c(-c3ccnc(Nc4cccc(Cl)c4)n3)cccc21 [Compound 13, 2-{4-[2-(3-Chloro-phenylamino)-pyrimidin-4-yl]-indol-1-yl}-N-ethyl-acetamide] showed an IC50 (CDK7/cyclinH/MAT1) greater than 50 µM, an IC50 [1] of less than 5 µM and an IC50 (CDK1/cyclinB) greater than 50 µM. It also gave an IC50 (CDK9/cyclinT1) of less than 5 µM.
In the case of Cc1cnc(Nc2cccc(S(C)(=O)=O)c2)nc1-c1cccc2[nH]ccc12 [Compound 31, [4-(1H-Indol-4-yl)-5-methyl-pyrimidin-2-yl]-(3-methanesulfonyl-phenyl)-amine], the IC50 (CDK7/cyclinH/MAT1) is reported as less than 5 µM, the IC50 [1] is reported as less than 5 µM and the IC50 (CDK2/cyclinA) is reported as less than 5 µM. For the same compound, the IC50 (CDK1/cyclinB) was less than 5 µM, the IC50 (CDK5) was less than 5 µM and the IC50 (CDK4) was 5 to 15 µM. For the same compound, the IC50 (CDK9/cyclinT1) was less than 5 µM.
